Assays:
[1] = Cmax in cynomolgus monkey at 10 mg/kg, po; format: ADME, organism-based, Macaca fascicularis; design: dose 10 mg/kg, route oral; conditions: in vivo
[2] = Tmax in Sprague-Dawley rat at 10 mg/kg, po or 10 mg/kg, iv; format: ADME, organism-based; conditions: in vivo
[3] = Half life in cynomolgus monkey at 10 mg/kg, iv; format: ADME, organism-based, Macaca fascicularis; design: dose 10 mg/kg, route intravenous; conditions: in vivo
[4] = Volume of distribution in Sprague-Dawley rat at 10 mg/kg, iv; format: ADME, organism-based; design: dose 10 mg/kg, route intravenous; conditions: in vivo
[5] = Clearance in cynomolgus monkey at 10 mg/kg, iv; format: ADME, organism-based, Macaca fascicularis; design: dose 10 mg/kg, route intravenous; conditions: in vivo
[6] = Oral bioavailability in cynomolgus monkey at 10 mg/kg; format: ADME, organism-based, Macaca fascicularis; conditions: in vivo
[7] = AUC in Sprague-Dawley rat at 10 mg/kg, po; format: ADME, organism-based; design: dose 10 mg/kg, route oral; conditions: plasma
[8] = Tmax in cynomolgus monkey at 10 mg/kg, po; format: ADME, organism-based, Macaca fascicularis; design: dose 10 mg/kg, route oral; conditions: in vivo
[9] = Cmax in Sprague-Dawley rat at 10 mg/kg, po or 10 mg/kg, iv; format: ADME, organism-based; conditions: in vivo
[10] = Oral bioavailability in Sprague-Dawley rat at 10 mg/kg; format: ADME, organism-based; conditions: in vivo
[11] = Volume of distribution in cynomolgus monkey at 10 mg/kg, iv; format: ADME, organism-based, Macaca fascicularis; design: dose 10 mg/kg, route intravenous; conditions: in vivo
[12] = AUC in cynomolgus monkey at 10 mg/kg, po; format: ADME, organism-based, Macaca fascicularis; design: dose 10 mg/kg, route oral; conditions: plasma
[13] = Lipophilicity, log D at pH 7.4; format: physicochemical; conditions: buffer
[14] = Clearance in Sprague-Dawley rat at 10 mg/kg, iv; format: ADME, organism-based; design: dose 10 mg/kg, route intravenous; conditions: in vivo
[15] = Half life in Sprague-Dawley rat at 10 mg/kg, iv; format: ADME, organism-based; design: dose 10 mg/kg, route intravenous; conditions: in vivo
[16] = Dissociation constant, pKa of the compound; format: physicochemical

Cmax [1] [ng/mL] | Tmax [2] [min] | half-life [3] [min] | Vd [4] [L/kg] | clearance [5] [mL/min/kg] | bioavailability [6] [%] | AUC [7] [ng·h/mL] | Tmax [8] [min] | Cmax [9] [ng/mL] | bioavailability [10] [%] | Vd [11] [L/kg] | AUC [12] [ng·h/mL] | logD [13] | clearance [14] [mL/min/kg] | half-life [15] [min] | pKa [16] | Compound
7870 | 15 | 450 | 1.3 | 7.9 | 52.7 | 132 | 37.8 | 149 | 3 | 4.9 | 11100 | 2.1 | 37.6 | 24 |  | O=C(O)CCCN[C@@H](Cn1c(=O)c(-c2ccccc2Cl)cn(Cc2c(F)cccc2C(F)(F)F)c1=O)c1ccccc1
2040 | 15 | 60 | 1.7 | 20.9 | 22.6 | 63.3 | 30 | 77 | 2.4 | 1.8 | 1900 | 1.8 | 64.1 | 18 | 4.16 | COc1cccc(-c2cn(Cc3c(F)cccc3C(F)(F)F)c(=O)n(C[C@H](NCCCC(=O)O)c3ccccc3)c2=O)c1F
